Assay results: the RepoRT retention time repository (doi:10.1016/j.jchromb.2020.122105)

How the values were obtained:
Conditions in all cases: stereoisomer not certain
[1] = RP, Thermo Scientific Hypercarb, 150 × 2.1 mm, 5 µm, 0.1 mL/min, estimated dead time 3.3 min; A: water + 0.1% formic acid, pH 3; B: methanol + 0.1% formic acid, pH 3; gradient (min/%B) 0/5 5/5 20/100 35/100 35.1/5 45/5
[2] = HILIC, Waters XBridge BEH Amide, 100 × 2.1 mm, 2.5 µm, 0.5 mL/min, estimated dead time 0.44 min; A: water + 0.1% acetic acid + 10 mM ammonium acetate, pH 4; B: 5% water + 95% acetonitrile + 0.1% acetic acid + 10 mM ammonium acetate, pH 4; gradient (min/%B) 0/95 5/95 20/57 25/57 30/95 40/95
[3] = RP, Waters CORTECS T3, 100 × 2.1 mm, 2.7 µm, 0.2 mL/min, estimated dead time 1.1 min; A: water + 0.1% formic acid, pH 3; B: methanol + 0.1% formic acid, pH 3; gradient (min/%B) 0/0 1/0 6/5 30/100 35/100 35.1/0 40/0
[4] = RP, Waters ACQUITY UPLC BEH C18, 100 × 2.1 mm, 1.7 µm, 0.1 mL/min, estimated dead time 2.2 min; A: water + 0.1% formic acid, pH 3; B: methanol + 0.1% formic acid, pH 3; gradient (min/%B) 0/5 5/5 25/95 25.1/100 35/100 35.1/5 45/5
[5] = RP, Waters CORTECS T3, 100 × 2.1 mm, 2.7 µm, 0.25 mL/min, estimated dead time 0.88 min; A: water + 0.1% formic acid, pH 3; B: methanol + 0.1% formic acid, pH 3; gradient (min/%B) 0/5 5/5 25/95 25.1/100 35/100 35.1/5 45/5
[6] = RP, Waters CORTECS T3, 100 × 2.1 mm, 2.7 µm, 0.15 mL/min, estimated dead time 1.5 min; A: water + 0.1% formic acid, pH 3; B: methanol + 0.1% formic acid, pH 3; gradient (min/%B) 0/5 5/5 25/95 25.1/100 35/100 35.1/5 45/5
[7] = HILIC, Merck SeQuant ZIC-HILIC, 150 × 2.1 mm, 5 µm, 0.75 mL/min, estimated dead time 0.44 min; A: water + 0.1% acetic acid + 10 mM ammonium acetate, pH 4; B: 5% water + 95% acetonitrile + 0.1% acetic acid + 10 mM ammonium acetate, pH 4; gradient (min/%B) 0/95 5/95 20/57 25/57 30/95 40/95
[8] = RP, Waters CORTECS T3, 100 × 2.1 mm, 2.7 µm, 0.3 mL/min, estimated dead time 0.73 min; A: water + 0.1% formic acid, pH 3; B: methanol + 0.1% formic acid, pH 3; gradient (min/%B) 0/0 5/0 25/100 30/100 30.1/0 35/0
[9] = RP, Waters ACQUITY UPLC BEH C18, 100 × 2.1 mm, 1.7 µm, 0.2 mL/min, estimated dead time 1.1 min; A: water + 0.025% formic acid + 20 mM ammonium acetate + 0.055% ammonium hydroxide, pH 7; B: methanol; gradient (min/%B) 0/5 5/5 25/100 30/100 30.1/5 35/5
[10] = RP, Waters CORTECS T3, 100 × 2.1 mm, 2.7 µm, 0.3 mL/min, estimated dead time 0.73 min; A: water + 0.1% formic acid, pH 3; B: methanol + 0.1% formic acid, pH 3; gradient (min/%B) 0/0 1/0 6/5 30/100 35/100 35.1/0 40/0
[11] = RP, Waters ACQUITY UPLC BEH C18, 100 × 2.1 mm, 1.7 µm, 0.2 mL/min, estimated dead time 1.1 min; A: water + 0.1% formic acid, pH 3; B: methanol + 0.1% formic acid, pH 3; gradient (min/%B) 0/5 5/5 25/100 30/100 30.1/5 35/5
[12] = HILIC, Merck SeQuant ZIC-HILIC, 150 × 2.1 mm, 5 µm, 0.75 mL/min, estimated dead time 0.44 min; A: water + 10 mM ammonium formate, pH 6; B: 5% water + 95% acetonitrile + 10 mM ammonium formate, pH 6; gradient (min/%B) 0/95 5/95 20/57 25/57 30/95 40/95
[13] = RP, Waters ACQUITY UPLC BEH C18, 100 × 2.1 mm, 1.7 µm, 0.1 mL/min, estimated dead time 2.2 min; A: water + 0.1% formic acid, pH 3; B: methanol + 0.1% formic acid, pH 3; gradient (min/%B) 0/5 5/5 25/95 25.1/100 35/100 35.1/5 45/5; remark: listed apart in the source
[14] = RP, Waters CORTECS T3, 100 × 2.1 mm, 2.7 µm, 0.2 mL/min, estimated dead time 1.1 min; A: water + 0.1% formic acid, pH 3; B: methanol + 0.1% formic acid, pH 3; gradient (min/%B) 0/5 5/5 25/95 25.1/100 35/100 35.1/5 45/5
[15] = RP, Waters CORTECS T3, 100 × 2.1 mm, 2.7 µm, 0.2 mL/min, estimated dead time 1.1 min; A: water + 0.1% formic acid, pH 3; B: methanol + 0.1% formic acid, pH 3; gradient (min/%B) 0/0 1/0 6/5 30/100 35/100 35.1/0 40/0; remark: listed apart in the source
[16] = RP, Waters CORTECS T3, 100 × 2.1 mm, 2.7 µm, 0.25 mL/min, estimated dead time 0.88 min; A: water + 0.1% formic acid, pH 3; B: methanol + 0.1% formic acid, pH 3; gradient (min/%B) 0/0 1/0 6/5 30/100 35/100 35.1/0 40/0
[17] = RP, Waters CORTECS T3, 100 × 2.1 mm, 2.7 µm, 0.15 mL/min, estimated dead time 1.5 min; A: water + 0.1% formic acid, pH 3; B: methanol + 0.1% formic acid, pH 3; gradient (min/%B) 0/0 1/0 6/5 30/100 35/100 35.1/0 40/0
[18] = RP, Waters ACQUITY UPLC BEH C18, 100 × 2.1 mm, 1.7 µm, 0.1 mL/min, estimated dead time 2.2 min; A: water + 0.1% formic acid, pH 3; B: methanol + 0.1% formic acid, pH 3; gradient (min/%B) 0/5 5/5 25/100 30/100 30.1/5 35/5
[19] = RP, Waters CORTECS T3, 100 × 2.1 mm, 2.7 µm, 0.1 mL/min, estimated dead time 2.2 min; A: water + 0.1% formic acid, pH 3; B: methanol + 0.1% formic acid, pH 3; gradient (min/%B) 0/0 1/0 6/5 30/100 35/100 35.1/0 40/0
[20] = RP, Waters CORTECS T3, 100 × 2.1 mm, 2.7 µm, 0.3 mL/min, estimated dead time 0.73 min; A: water + 0.1% formic acid, pH 3; B: methanol + 0.1% formic acid, pH 3; gradient (min/%B) 0/0 1/0 6/5 30/100 35/100 35.1/0 40/0; remark: listed apart in the source
[21] = RP, Waters CORTECS T3, 100 × 2.1 mm, 2.7 µm, 0.2 mL/min, estimated dead time 1.1 min; A: water + 0.045% formic acid + 0.11% ammonium hydroxide, pH 7; B: methanol; gradient (min/%B) 0/5 5/5 25/95 25.1/100 35/100 35.1/5 45/5
[22] = RP, Waters ACQUITY UPLC BEH C18, 100 × 2.1 mm, 1.7 µm, 0.1 mL/min, estimated dead time 2.2 min; A: water + 0.045% formic acid + 0.11% ammonium hydroxide, pH 7; B: methanol; gradient (min/%B) 0/5 5/5 25/95 25.1/100 35/100 35.1/5 45/5
[23] = RP, Waters CORTECS T3, 100 × 2.1 mm, 2.7 µm, 0.3 mL/min, estimated dead time 0.73 min; A: water + 0.1% formic acid, pH 3; B: methanol + 0.1% formic acid, pH 3; gradient (min/%B) 0/0 5/0 25/100 30/100 30.1/0 35/0; remark: listed apart in the source
[24] = RP, Waters CORTECS T3, 100 × 2.1 mm, 2.7 µm, 0.3 mL/min, estimated dead time 0.73 min; A: water + 0.1% formic acid, pH 3; B: methanol + 0.1% formic acid, pH 3; gradient (min/%B) 0/5 5/5 25/95 25.1/100 35/100 35.1/5 45/5
[25] = RP, Waters CORTECS T3, 100 × 2.1 mm, 2.7 µm, 0.3 mL/min, estimated dead time 0.73 min; A: water + 0.1% formic acid, pH 3; B: methanol + 0.1% formic acid, pH 3; gradient (min/%B) 0/5 5/5 25/100 30/100 30.1/5 35/5
[26] = RP, Waters ACQUITY UPLC BEH C18, 100 × 2.1 mm, 1.7 µm, 0.2 mL/min, estimated dead time 1.1 min; A: water + 0.025% formic acid + 20 mM ammonium acetate + 0.055% ammonium hydroxide, pH 7; B: methanol; gradient (min/%B) 0/5 5/5 25/100 30/100 30.1/5 35/5; remark: listed apart in the source

SMILES	LC retention time [2]	LC retention time [3]	LC retention time [4]	LC retention time [5]	LC retention time [6]	LC retention time [7]	LC retention time [8]	LC retention time [9]	LC retention time [10]	LC retention time [11]	LC retention time [12]	LC retention time [13]	LC retention time [14]	LC retention time [16]	LC retention time [18]	also measured
NCCP(=O)(O)O [(2-AMINOETHYL)PHOSPHONATE]	–	–	–	–	–	–	–	–	–	–	–	2.75 min	2.44 min	–	–	–
CN(CC(=O)O)C(N)=NP(=O)(O)O [CREATINE PHOSPHATE]	–	–	–	–	–	–	–	–	–	–	–	3.05 min	–	–	–	–
C[N+](C)(C)CCOP(=O)(O)OP(=O)([O-])OCC1OC(n2ccc(N)nc2=O)C(O)C1O (configuration not stated) [CYTIDINE 5'-DIPHOSPHOCHOLINE]	–	–	–	–	–	–	–	–	–	–	–	2.72 min	–	1.09 min	–	LC retention time [15]: 1.34 min; LC retention time [17]: 1.78 min
Nc1nc2c(ncn2C2OC(CO)C(O)C2O)c(=O)[nH]1 (configuration not stated) [GUANOSINE]	10.3 min	7.02 min	2.7 min	2.95 min	4.79 min	10.1 min	–	1.76 min	5.43 min	3.31 min	10.5 min	–	10.9 min	–	2.74 min	–
NC(=O)c1ccc[n+](C2OC(COP(=O)(O)OP(=O)(O)OCC3OC(n4cnc5c(N)ncnc54)C(O)C3O)C(O)C2O)c1 (configuration not stated) [NAD]	–	–	–	–	–	–	–	–	–	–	–	2.78 min	–	–	2.74 min	–
C[N+](C)(C)CCOP(=O)(O)O [PHOSPHOCHOLINE]	–	–	–	–	–	–	–	–	–	–	–	2.66 min	–	–	–	LC retention time [1]: 4.81 min

Further lines, with some results ahead:

LC retention time [2]	LC retention time [3]	LC retention time [4]	LC retention time [5]	LC retention time [6]	LC retention time [7]	LC retention time [8]	LC retention time [9]	LC retention time [10]	LC retention time [11]	LC retention time [12]	LC retention time [13]	LC retention time [14]	LC retention time [16]	LC retention time [18]	SMILES	also measured
13.6 min	3.1 min	4.43 min	1.77 min	2.89 min	13.6 min	2.22 min	1.36 min	2.22 min	2.27 min	14 min	–	–	–	–	CC(=O)NC(CCC(=O)O)C(=O)O (racemic) [N-ACETYL-DL-GLUTAMIC ACID]	LC retention time [1]: 24 min
7.4 min	14.6 min	17.2 min	12 min	14.3 min	5.95 min	12.2 min	6.59 min	12.8 min	13.3 min	6.56 min	–	18.4 min	–	–	CC(=O)N[C@@H](CC(C)C)C(=O)O [N-ACETYL-L-LEUCINE]	–
6.98 min	15.3 min	17.7 min	12.7 min	14.9 min	5.57 min	12.8 min	8.81 min	13.6 min	13.8 min	6.61 min	–	19 min	14.4 min	17.3 min	CC(=O)N[C@@H](Cc1ccccc1)C(=O)O [N-ACETYL-L-PHENYLALANINE]	LC retention time [19]: 13.6 min; LC retention time [20]: 13.6 min; LC retention time [21]: 9.59 min; LC retention time [22]: 13.6 min; LC retention time [23]: 12.8 min; LC retention time [24]: 12 min; LC retention time [25]: 11.8 min
0.95 min	–	13.7 min	–	11.8 min	1.09 min	–	10.2 min	–	–	1.15 min	–	15.3 min	11.3 min	13.6 min	CC(=O)NCCc1c[nH]c2ccc(O)cc12 [N-ACETYLSEROTONIN]	LC retention time [19]: 10.6 min; LC retention time [20]: 10.8 min; LC retention time [21]: 10.7 min; LC retention time [15]: 12.1 min; LC retention time [22]: 13.7 min; LC retention time [17]: 13.3 min; LC retention time [23]: 10.4 min; LC retention time [24]: 9.27 min; LC retention time [25]: 9.2 min; LC retention time [26]: 10.6 min
